# Laboratory results taken from patent publication EP0354047A2, “Herbicidal method using atrazine” (MAY & BAKER LIMITED, priority 1988, dated 1990).
# Tests used:
# Brassica kaber = experiment: Experiment 3: glasshouse, post-emergence, fresh weight after 19 days, % inhibition of growth; type: in vivo; conditions: 2-3 leaves
# Description: (§1) A series of experiments was carried out to determine the nature of the biological interaction between atrazine and five compounds of general formula I on a range of weed species. […] The growth stages of the plants at spraying are also presented with the results. Agricultural surfactant (nonyl phenol ethylene oxide condensate containing 9 moles ethylene oxide marketed as 'Agral') was added to all spray dilutions to give 0.2% v/v concentration. […] After 19 days the fresh weight of vegetation in each pot was determined. […] E = […]00003:character} where E, X and Y are percentage inhibition of growth. In addition, the ED50 or ED90 values (the application rates giving 50% or 90% inhibition of growth, respectively) were calculated from the results for the piperidinedione alone and with increasing rates of atrazine.
# Xanthium strumarium = experiment: as above; type: in vivo; conditions: 2 leaves
# Description: as §1
# Amaranthus retroflexus = experiment: as above; type: in vivo; conditions: 2-4 leaves
# Description: as §1
# Sesbania exactata = experiment: as above; type: in vivo; conditions: 2 leaves
# Description: as §1
# Bidens pilosa = experiment: as above; type: in vivo; conditions: 2 leaves
# Description: as §1
# Digitaria sanguinalis = experiment: as above; type: in vivo; conditions: 3 leaves
# Description: as §1
# Eleusine indica [1] = experiment: as above; type: in vivo; conditions: 3 leaves
# Description: as §1
# Solanum nigrum = experiment: as above; type: in vivo; conditions: 1-2 leaves
# Description: as §1
# maize var.Irla = experiment: Experiment 5: glasshouse, crop plants at 3 leaf stage, percentage phytotoxicity after 12 days; conditions: for % crop phytotoxicity Maize (3 leaves): Atrazine 0 g/ha
# Description: An experiment was carried out to determine the biological interaction between atrazine and Compound 74 on maize. A wide range of dose rates of atrazine i.e. 250, 500, 1000 and 2000 g/ha (in a commercial suspension concentrate formulation containing 500g/l w/v atrazine) and of Compound 74 i.e. 31, 63, 125, 250, 1000 and 2000 g/ha (in a composition according to Example 2 as described hereinafter) were applied in a spray volume of 290litres/ha to four replicate 10cm square plastic plant pots of loam soil containing one maize plant, at the 3 leaf growth stage. Agricultural surfactant ('Agral') was added to the spray dilutions to give 0.2%v/v concentration.
# After spraying the pots were arranged in randomised blocks in a glasshouse and watered as necessary. After 12 days the plants were assessed for percentage phytotoxicity (reduction in green area compared with unsprayed plants) (0 = no effect 100 = complete destruction).
# E = X + Y […] where E, X and Y are percentage phytotoxicity.
# The ED values were then used to plot an isobole according to the method of P.M.L. Tammes op cit. The results of percentage phytotoxicity, the ED₂₀ values calculated from them and the calculated expected value are given in Table 9.
# Eleusine indica [2] = experiment: Experiment 2: glasshouse experiment, seedlings at 4-leaf stage, percentage phytotoxicity after 19 days; type: in vivo
# Description: Agricultural surfactant - nonylphenol ethylene oxide condensate containing 9 moles ethylene oxide (in a commercial composition) was added to all spray dilutions to give 0.2% v/v concentration. […] The ED50 values were as follows:- The results were then used to plot an isobole with a "two-sided effect" according to the methods of […] op. cit. The isobole produced, shown hereinafter in Figure 1 was clearly a type III curve ([…]., page 75), characteristic of synergism.
structure (smiles),measurement,setting,value
"O=C1CCNC(=O)C1C(=O)c1ccc(C(F)(F)F)cc1[N+](=O)[O-] (stereo not drawn) [Compound 74, 3-(2-nitro-4-trifluoromethylbenzoyl)piperidine-2,4-dione]",ED₅₀,Brassica kaber; Compound 74 alone,ED₅₀(g/ha) 10.3
same,inhibition at 2 g/ha,"Brassica kaber; Mutarda arvensis, post-emergence, Compound 74 2 g/ha alone",19%
same,inhibition at 4 g/ha,"Brassica kaber; Mutarda arvensis, post-emergence, Compound 74 4 g/ha alone",20%
same,inhibition at 8 g/ha,"Brassica kaber; Mutarda arvensis, post-emergence, Compound 74 8 g/ha alone",32%
same,inhibition at 16 g/ha,"Brassica kaber; Mutarda arvensis, post-emergence, Compound 74 16 g/ha alone",61%
same,inhibition at 31 g/ha,"Brassica kaber; Mutarda arvensis, post-emergence, Compound 74 31 g/ha alone",72%
same,inhibition at 63 g/ha,"Brassica kaber; Mutarda arvensis, post-emergence, Compound 74 63 g/ha alone",96%
same,ED₉₀,Xanthium strumarium; Compound 74 alone,ED₉₀(g/ha) 166.99
same,inhibition at 8 g/ha,"Xanthium strumarium; Xanthium strumarium, post-emergence, Compound 74 8 g/ha alone",55%
same,inhibition at 16 g/ha,"Xanthium strumarium; Xanthium strumarium, post-emergence, Compound 74 16 g/ha alone",45%
same,inhibition at 31 g/ha,"Xanthium strumarium; Xanthium strumarium, post-emergence, Compound 74 31 g/ha alone",74%
same,inhibition at 125 g/ha,"Xanthium strumarium; Xanthium strumarium, post-emergence, Compound 74 125 g/ha alone",86%
same,inhibition at 163 g/ha,"Xanthium strumarium; Xanthium strumarium, post-emergence, Compound 74 163 g/ha alone",79%
same,inhibition at 250 g/ha,"Xanthium strumarium; Xanthium strumarium, post-emergence, Compound 74 250 g/ha alone",92%
same,inhibition at 2 g/ha,"Amaranthus retroflexus; Amaranthus retroflexus, post-emergence, Compound 74 2 g/ha alone",27%
same,inhibition at 4 g/ha,"Amaranthus retroflexus; Amaranthus retroflexus, post-emergence, Compound 74 4 g/ha alone",47%
same,inhibition at 8 g/ha,"Amaranthus retroflexus; Amaranthus retroflexus, post-emergence, Compound 74 8 g/ha alone",69%
same,inhibition at 16 g/ha,"Amaranthus retroflexus; Amaranthus retroflexus, post-emergence, Compound 74 16 g/ha alone",76%
same,inhibition at 31 g/ha,"Amaranthus retroflexus; Amaranthus retroflexus, post-emergence, Compound 74 31 g/ha alone",86%
same,inhibition at 63 g/ha,"Amaranthus retroflexus; Amaranthus retroflexus, post-emergence, Compound 74 63 g/ha alone",90%
same,ED₉₀,Amaranthus retroflexus; Compound 74 alone,ED₉₀(g/ha) 46.43
same,ED₉₀,Sesbania exactata; Compound 74 alone,ED₉₀(g/ha)375.45
same,inhibition at 8 g/ha,"Sesbania exactata; Sesbania, post-emergence, Compound 74 8 g/ha alone",65%
same,inhibition at 16 g/ha,"Sesbania exactata; Sesbania, post-emergence, Compound 74 16 g/ha alone",73%
same,inhibition at 31 g/ha,"Sesbania exactata; Sesbania, post-emergence, Compound 74 31 g/ha alone",61%
same,inhibition at 125 g/ha,"Sesbania exactata; Sesbania, post-emergence, Compound 74 125 g/ha alone",84%
same,inhibition at 163 g/ha,"Sesbania exactata; Sesbania, post-emergence, Compound 74 163 g/ha alone",80%
same,inhibition at 250 g/ha,"Sesbania exactata; Sesbania, post-emergence, Compound 74 250 g/ha alone",79%
same,inhibition at 8 g/ha,"Bidens pilosa; Bidens pilosa, post-emergence, Compound 74 8 g/ha alone",0%
same,inhibition at 16 g/ha,"Bidens pilosa; Bidens pilosa, post-emergence, Compound 74 16 g/ha alone",0%
same,inhibition at 31 g/ha,"Bidens pilosa; Bidens pilosa, post-emergence, Compound 74 31 g/ha alone",0%
same,inhibition at 125 g/ha,"Bidens pilosa; Bidens pilosa, post-emergence, Compound 74 125 g/ha alone",48%
same,inhibition at 163 g/ha,"Bidens pilosa; Bidens pilosa, post-emergence, Compound 74 163 g/ha alone",15%
same,inhibition at 250 g/ha,"Bidens pilosa; Bidens pilosa, post-emergence, Compound 74 250 g/ha alone",75%
same,ED₅₀,Bidens pilosa; Compound 74 alone,ED₅₀(g/ha)141.27
same,ED₉₀,Digitaria sanguinalis; Compound 74 alone,ED₉₀ (g/ha) 75.46
same,inhibition at 16 g/ha,"Digitaria sanguinalis; Digitaria sanguinalis, post-emergence, Compound 74 16 g/ha alone",55%
same,inhibition at 31 g/ha,"Digitaria sanguinalis; Digitaria sanguinalis, post-emergence, Compound 74 31 g/ha alone",75%
same,inhibition at 63 g/ha,"Digitaria sanguinalis; Digitaria sanguinalis, post-emergence, Compound 74 63 g/ha alone",88%
same,inhibition at 125 g/ha,"Digitaria sanguinalis; Digitaria sanguinalis, post-emergence, Compound 74 125 g/ha alone",96%
same,inhibition at 250 g/ha,"Digitaria sanguinalis; Digitaria sanguinalis, post-emergence, Compound 74 250 g/ha alone",99%
same,inhibition at 500 g/ha,"Digitaria sanguinalis; Digitaria sanguinalis, post-emergence, Compound 74 500 g/ha alone",100%
same,ED₅₀,Eleusine indica [1]; Compound 74 alone,ED₅₀ (g/ha) 72.43
same,inhibition at 16 g/ha,"Eleusine indica [1]; Eleusine indica, post-emergence, Compound 74 16 g/ha alone",0%
same,inhibition at 31 g/ha,"Eleusine indica [1]; Eleusine indica, post-emergence, Compound 74 31 g/ha alone",26%
same,inhibition at 63 g/ha,"Eleusine indica [1]; Eleusine indica, post-emergence, Compound 74 63 g/ha alone",55%
same,inhibition at 125 g/ha,"Eleusine indica [1]; Eleusine indica, post-emergence, Compound 74 125 g/ha alone",84%
same,inhibition at 250 g/ha,"Eleusine indica [1]; Eleusine indica, post-emergence, Compound 74 250 g/ha alone",96%
same,inhibition at 500 g/ha,"Eleusine indica [1]; Eleusine indica, post-emergence, Compound 74 500 g/ha alone",95%
same,ED₉₀,Solanum nigrum; Compound 74 alone,ED₉₀(g/ha) 41.13
same,inhibition at 2 g/ha,"Solanum nigrum; Solanum nigrum, post-emergence, Compound 74 2 g/ha alone",15%
same,inhibition at 4 g/ha,"Solanum nigrum; Solanum nigrum, post-emergence, Compound 74 4 g/ha alone",30%
same,inhibition at 8 g/ha,"Solanum nigrum; Solanum nigrum, post-emergence, Compound 74 8 g/ha alone",39%
same,inhibition at 16 g/ha,"Solanum nigrum; Solanum nigrum, post-emergence, Compound 74 16 g/ha alone",60%
same,inhibition at 31 g/ha,"Solanum nigrum; Solanum nigrum, post-emergence, Compound 74 31 g/ha alone",82%
same,inhibition at 63 g/ha,"Solanum nigrum; Solanum nigrum, post-emergence, Compound 74 63 g/ha alone",94%
same,% crop phytotoxicity Maize (3 leaves),maize var.Irla; Compound 74 63 g/ha,1%
same,% crop phytotoxicity Maize (3 leaves),maize var.Irla; Compound 74 125 g/ha,3%
same,% crop phytotoxicity Maize (3 leaves),maize var.Irla; Compound 74 250 g/ha,6%
same,% crop phytotoxicity Maize (3 leaves),maize var.Irla; Compound 74 500 g/ha,10%
same,% crop phytotoxicity Maize (3 leaves),maize var.Irla; Compound 74 1000 g/ha,30%
same,% crop phytotoxicity Maize (3 leaves),maize var.Irla; Compound 74 2000 g/ha,58%
same,ED₂₀,maize var.Irla; Compound 74 alone,ED₂₀(g/ha) 601
same,percentage phytotoxicity,Eleusine indica [2]; Compound 74 16 g/ha alone,13%
same,percentage phytotoxicity,Eleusine indica [2]; Compound 74 31 g/ha alone,12%
same,percentage phytotoxicity,Eleusine indica [2]; Compound 74 63 g/ha alone,40%
same,percentage phytotoxicity,Eleusine indica [2]; Compound 74 125 g/ha alone,50%
same,percentage phytotoxicity,Eleusine indica [2]; Compound 74 250 g/ha alone,77%
same,ED₅₀,"Eleusine indica [2]; Compound 74 alone, 50% phytotoxicity",101 g/ha
